The target in one test is Carbonic anhydrase 2 (Homo sapiens, UniProt P00918).
For the next test, the target named is Carbonic anhydrase 1 (Homo sapiens, UniProt P00915).
Chain of Carbonic anhydrase 1 (P00915 whole entry): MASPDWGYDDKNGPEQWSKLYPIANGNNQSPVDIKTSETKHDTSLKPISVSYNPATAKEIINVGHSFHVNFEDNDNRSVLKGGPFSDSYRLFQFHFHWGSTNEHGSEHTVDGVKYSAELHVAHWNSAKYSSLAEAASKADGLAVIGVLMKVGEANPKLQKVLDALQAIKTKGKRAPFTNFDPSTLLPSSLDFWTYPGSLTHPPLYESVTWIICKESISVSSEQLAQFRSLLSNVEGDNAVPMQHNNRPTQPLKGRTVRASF

Description for Carbonic anhydrase 1: Inhibitory activity against human cloned isoenzyme carbonic anhydrase I (hCA I), by esterase method.
Description for Carbonic anhydrase 2: Inhibitory activity against human cloned isoenzyme carbonic anhydrase II (hCA II), by esterase method.

Consider `COc1ccc(NS(N)(=O)=O)cc1`, for which the Ki at Carbonic anhydrase 2 is 11 nM; on Carbonic anhydrase 1 it was 14 nM. On the same counts, the results for `NS(=O)(=O)N1CCCCCC1` are 131 nM and 163 nM.

For `NS(=O)(=O)Nc1ccc(I)cc1`, the Ki at Carbonic anhydrase 2 is 17 nM; on Carbonic anhydrase 1, 18 nM. On to `NS(=O)(=O)Nc1ccc(Br)cc1`, for which, on Carbonic anhydrase 1, the Ki turned out to be 23 nM.

For the compound `CCOC(=O)c1ccc(NS(N)(=O)=O)cc1`, the Ki at Carbonic anhydrase 2 was found to be 19 nM; on Carbonic anhydrase 1, 26 nM. On to `NS(=O)(=O)N(C1CCCCC1)C1CCCCC1`, for which the Ki on Carbonic anhydrase 2 and at Carbonic anhydrase 1 was over 100000 nM each time. On to `NS(=O)(=O)Nc1ccc(Cl)cc1`, for which the results for the Ki on Carbonic anhydrase 2 and at Carbonic anhydrase 1 were 15 nM and 19 nM, respectively. Regarding `CC(C)N(C(C)C)S(N)(=O)=O`, the Ki on Carbonic anhydrase 2 and at Carbonic anhydrase 1 was over 100000 nM in each case. As to `Cc1ccc(NS(N)(=O)=O)cc1`, the Ki was determined as 13 nM at Carbonic anhydrase 2 and 15 nM on Carbonic anhydrase 1.

For the compound `NS(=O)(=O)NCc1ccccc1`, the results for the Ki on Carbonic anhydrase 2 and on Carbonic anhydrase 1 were 123 nM and 133 nM, respectively. On the same counts, the results for `NS(=O)(=O)Nc1ccc([N+](=O)[O-])cc1` are 13 nM and 18 nM. On the same counts, the results for `NS(=O)(=O)Nc1cccc(C(=O)c2ccccc2)c1` are 49 nM and 62 nM. On the same counts, the results for `CCCCNS(N)(=O)=O` are 148 nM and 173 nM. As for `NS(=O)(=O)NC1CCCCC1`, the Ki turned out to be 450 nM on Carbonic anhydrase 2 and 164 nM on Carbonic anhydrase 1. For the compound `NS(=O)(=O)Nc1ccc(O)cc1`, the Ki on Carbonic anhydrase 2 was found to be 12 nM; at Carbonic anhydrase 1 it was 16 nM. For `CN(C)c1ccc(NS(N)(=O)=O)cc1` the same measures were 21 nM and 17 nM. As for `NS(=O)(=O)N(Cc1ccccc1)Cc1ccccc1`, the results for the Ki on Carbonic anhydrase 2 and at Carbonic anhydrase 1 were 647 nM and over 100000 nM, respectively.

Regarding `NS(=O)(=O)NC1C2CC3CC(C2)CC1C3` (stereo not given), the Ki on Carbonic anhydrase 2 worked out at 890 nM; at Carbonic anhydrase 1, 960 nM. Take `CC(C)CN(CC(C)C)S(N)(=O)=O`: the Ki at Carbonic anhydrase 2 and at Carbonic anhydrase 1 was over 100000 nM throughout. Turning to `NS(=O)(=O)NCCSSCCNS(N)(=O)=O`, the Ki on Carbonic anhydrase 2 amounted to 27 nM; at Carbonic anhydrase 1 it was 149 nM.

In turn, `NS(=O)(=O)Nc1ccccc1` [PHENYLSULFAMIDE] came in with a Ki on Carbonic anhydrase 1 of 13 nM.

By Ki is commonly meant a dissociation constant, usually derived from enzyme kinetics or from competition with a known ligand. The low end stands for a stronger hold on the target, the high end for a looser hold on the target.

The record behind these values is ChEMBL document CHEMBL1136615, “Carbonic anhydrase inhibitors: inhibition of cytosolic isozymes I and II with sulfamide derivatives” (Bioorg Med Chem Lett, 2003).
